Experimental data taken from ChEMBL document CHEMBL1201862, “PubChem BioAssay data set” (2004).
Counter-ions that a name gives are not always drawn. Calls of active or inactive are those of the source.

Columns and labels:
[1] = target: T1, Corticotropin-releasing factor receptor 2/Corticotropin-releasing factor-binding protein (Homo sapiens, UniProt P24387+Q13324); assay: Dose Response confirmation of uHTS hits for small molecule antagonists of the CRF-binding protein and CRF-R2 receptor complex.; assay type: functional; conditions: read-out: IC50_Mean
T1 sequence (Q13324 whole entry): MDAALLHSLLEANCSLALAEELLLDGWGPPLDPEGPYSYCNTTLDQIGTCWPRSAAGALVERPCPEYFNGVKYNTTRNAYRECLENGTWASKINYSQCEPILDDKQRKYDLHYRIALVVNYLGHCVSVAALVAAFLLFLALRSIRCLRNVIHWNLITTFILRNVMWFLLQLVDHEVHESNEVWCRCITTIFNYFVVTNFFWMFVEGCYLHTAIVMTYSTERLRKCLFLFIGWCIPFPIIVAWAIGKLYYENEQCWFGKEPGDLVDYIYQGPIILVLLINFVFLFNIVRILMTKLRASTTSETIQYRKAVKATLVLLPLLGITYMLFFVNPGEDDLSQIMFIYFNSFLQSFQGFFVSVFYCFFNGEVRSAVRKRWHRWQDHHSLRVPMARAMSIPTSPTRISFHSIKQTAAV
T1 sequence (P24387 whole entry): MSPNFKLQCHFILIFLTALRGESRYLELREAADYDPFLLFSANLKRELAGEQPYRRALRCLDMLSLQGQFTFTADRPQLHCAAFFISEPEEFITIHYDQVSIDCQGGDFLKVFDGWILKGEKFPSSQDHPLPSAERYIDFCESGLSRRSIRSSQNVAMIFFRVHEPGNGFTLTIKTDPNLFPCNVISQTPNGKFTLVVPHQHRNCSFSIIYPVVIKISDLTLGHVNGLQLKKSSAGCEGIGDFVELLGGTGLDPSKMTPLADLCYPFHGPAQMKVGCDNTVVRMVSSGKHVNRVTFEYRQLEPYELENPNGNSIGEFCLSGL

[2] = target: T1, Corticotropin-releasing factor receptor 2/Corticotropin-releasing factor-binding protein; assay: activators of CRF receptor 2 with binding protein – uHTS hits, confirmation (AID 602473); assay type: functional; conditions: read-out: EC50_Mean
[3] = blockers of CRF-binding protein–CRF-R2 complex – cell-based, uHTS hits, 384-well, dose response (AID 651639); assay type: functional, Homo sapiens; conditions: read-out: IC50_Mean
[4] = Trypanosoma cruzi growth suppression in host cells – NIH3T3 host cells, beta-gal luminescence, confirmation (AID 2044); assay type: functional, cell-based;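 also: intracellular parasites grown in NIH/3T3 mouse fibroblasts as host cells; luminescent beta-galactosidase reporter signal from transgenic T. cruzi replicating inside host cells; inhibitors lower the luminescence signal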
[5] = NIH3T3 cell viability loss – ATP luminescence, mouse fibroblasts, counter-screen, dose response (AID 2010); assay type: functional, cell-based;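 also: cells exposed to compound for about 90 hours before reading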
[6] = cells
[7] = target: T2, Sentrin-specific protease 8 (Homo sapiens, UniProt Q96LD8); assay type: functional
T2 sequence (Q96LD8 whole entry): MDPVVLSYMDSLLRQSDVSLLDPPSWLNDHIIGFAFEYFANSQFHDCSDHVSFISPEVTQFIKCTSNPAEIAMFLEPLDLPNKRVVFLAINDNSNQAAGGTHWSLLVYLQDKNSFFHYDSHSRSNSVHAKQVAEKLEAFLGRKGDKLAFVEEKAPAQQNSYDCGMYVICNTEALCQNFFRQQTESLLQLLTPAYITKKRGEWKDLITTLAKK

[8] = target: T2, Sentrin-specific protease 8; assay type: functional; remark: listed apart in the source
[9] = test system: INS1; assay: INS-1E survival protection against cytokine death – cell-based, luminescence, retest, dose response (AID 449756); assay type: functional; conditions: Rattus norvegicus;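 also: cell death triggered by IL-1 beta plus TNF-alpha plus IFN-gamma mixture; protective hits raise ATP signal compared with cytokine alone wells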
[10] = target: Photoreceptor-specific nuclear receptor (Homo sapiens, UniProt Q9Y5X4); assay type: functional, cell-based;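 also: CHO-S cells with Gal4-NCOR and VP16-NR2E3 two-hybrid luciferase reporter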
Photoreceptor-specific nuclear receptor, sequence (Q9Y5X4 whole entry, the tested form may be a part): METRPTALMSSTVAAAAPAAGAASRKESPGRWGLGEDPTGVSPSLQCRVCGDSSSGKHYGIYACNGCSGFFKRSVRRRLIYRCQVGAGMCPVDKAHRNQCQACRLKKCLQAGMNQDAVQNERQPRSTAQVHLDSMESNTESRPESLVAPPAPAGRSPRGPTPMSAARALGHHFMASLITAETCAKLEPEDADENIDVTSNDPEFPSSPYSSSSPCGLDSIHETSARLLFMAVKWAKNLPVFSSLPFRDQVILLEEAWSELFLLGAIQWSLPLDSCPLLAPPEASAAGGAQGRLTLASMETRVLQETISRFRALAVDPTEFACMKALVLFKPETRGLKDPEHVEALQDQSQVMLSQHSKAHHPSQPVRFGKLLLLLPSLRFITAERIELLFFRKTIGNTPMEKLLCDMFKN

[11] = target: Cytochrome P450 3A4 (Homo sapiens, UniProt P08684);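 also: CYP3A4 tested as one member of a cytochrome P450 panel screen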
Cytochrome P450 3A4, sequence (P08684 whole entry): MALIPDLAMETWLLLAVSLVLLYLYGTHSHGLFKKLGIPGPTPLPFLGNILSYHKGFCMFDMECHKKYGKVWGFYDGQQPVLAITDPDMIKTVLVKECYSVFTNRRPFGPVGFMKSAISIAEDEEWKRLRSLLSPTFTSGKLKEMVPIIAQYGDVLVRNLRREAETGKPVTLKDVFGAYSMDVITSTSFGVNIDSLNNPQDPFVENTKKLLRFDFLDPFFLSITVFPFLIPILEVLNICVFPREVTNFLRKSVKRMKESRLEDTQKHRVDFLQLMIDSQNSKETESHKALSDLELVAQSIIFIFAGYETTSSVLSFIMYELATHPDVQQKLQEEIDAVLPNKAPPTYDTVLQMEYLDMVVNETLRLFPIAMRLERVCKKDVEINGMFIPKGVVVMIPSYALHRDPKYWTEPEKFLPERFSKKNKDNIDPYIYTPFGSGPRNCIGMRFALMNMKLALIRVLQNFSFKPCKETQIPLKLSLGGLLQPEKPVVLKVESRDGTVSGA

[12] = target: Cytochrome P450 2C9 (Homo sapiens, UniProt P11712)
Cytochrome P450 2C9, sequence (P11712 whole entry): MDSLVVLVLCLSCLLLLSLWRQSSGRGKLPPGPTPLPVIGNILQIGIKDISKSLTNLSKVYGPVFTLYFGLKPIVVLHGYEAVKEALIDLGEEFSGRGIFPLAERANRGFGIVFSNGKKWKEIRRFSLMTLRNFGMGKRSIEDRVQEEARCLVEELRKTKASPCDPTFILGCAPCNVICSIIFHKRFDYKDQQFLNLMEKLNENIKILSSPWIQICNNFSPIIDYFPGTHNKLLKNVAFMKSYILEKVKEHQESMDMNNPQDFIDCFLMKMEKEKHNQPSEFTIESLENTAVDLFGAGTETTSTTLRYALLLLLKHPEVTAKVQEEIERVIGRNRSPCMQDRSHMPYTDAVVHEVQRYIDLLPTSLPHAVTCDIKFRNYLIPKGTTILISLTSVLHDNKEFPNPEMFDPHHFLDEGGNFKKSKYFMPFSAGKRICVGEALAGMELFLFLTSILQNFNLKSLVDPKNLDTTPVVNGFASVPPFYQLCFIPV

[13] = target: Estrogen receptor beta (Homo sapiens, UniProt Q92731);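 also: recombinant ER-beta bound to coactivator SRC1 peptide in presence of estradiol agonist; inhibitors block coactivator peptide binding and lower the FRET signal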
Estrogen receptor beta, sequence (Q92731 whole entry): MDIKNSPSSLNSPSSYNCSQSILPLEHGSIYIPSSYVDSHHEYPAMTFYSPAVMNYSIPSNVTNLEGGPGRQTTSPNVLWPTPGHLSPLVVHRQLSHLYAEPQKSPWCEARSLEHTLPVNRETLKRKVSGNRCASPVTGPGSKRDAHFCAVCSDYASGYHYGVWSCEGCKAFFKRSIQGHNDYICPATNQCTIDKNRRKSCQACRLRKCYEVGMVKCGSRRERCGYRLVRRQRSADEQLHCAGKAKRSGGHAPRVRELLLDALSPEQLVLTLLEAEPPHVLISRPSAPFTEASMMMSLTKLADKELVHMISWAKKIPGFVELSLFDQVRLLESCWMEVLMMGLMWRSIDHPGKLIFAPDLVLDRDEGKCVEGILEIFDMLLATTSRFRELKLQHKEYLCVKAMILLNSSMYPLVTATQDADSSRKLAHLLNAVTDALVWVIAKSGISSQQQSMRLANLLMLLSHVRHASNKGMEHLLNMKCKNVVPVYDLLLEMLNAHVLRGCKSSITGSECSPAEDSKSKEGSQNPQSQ

[14] = target: T3, Protein Tat (Human immunodeficiency virus type 1 group M subtype B (isolate HXB2)(HIV-1), UniProt P04608); assay type: functional;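 also: tat binding to TAR RNA read out by fluorescence polarization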
T3 sequence (P04608 whole entry): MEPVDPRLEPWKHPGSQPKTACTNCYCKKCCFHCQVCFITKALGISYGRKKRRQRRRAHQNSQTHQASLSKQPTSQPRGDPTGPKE

[15] = cells; assay type: functional, cell-based
[16] = cells; assay type: functional, cell-based; remark: listed apart in the source
[17] = target: T4, DNA repair and recombination protein RAD54-like (Homo sapiens, UniProt Q92698); assay: RAD54 Holliday junction migration blockers – biochemical, fluorescence, cherry-picked samples, dose series, confirmation (AID 651657); assay type: functional
T4 sequence (Q92698 whole entry): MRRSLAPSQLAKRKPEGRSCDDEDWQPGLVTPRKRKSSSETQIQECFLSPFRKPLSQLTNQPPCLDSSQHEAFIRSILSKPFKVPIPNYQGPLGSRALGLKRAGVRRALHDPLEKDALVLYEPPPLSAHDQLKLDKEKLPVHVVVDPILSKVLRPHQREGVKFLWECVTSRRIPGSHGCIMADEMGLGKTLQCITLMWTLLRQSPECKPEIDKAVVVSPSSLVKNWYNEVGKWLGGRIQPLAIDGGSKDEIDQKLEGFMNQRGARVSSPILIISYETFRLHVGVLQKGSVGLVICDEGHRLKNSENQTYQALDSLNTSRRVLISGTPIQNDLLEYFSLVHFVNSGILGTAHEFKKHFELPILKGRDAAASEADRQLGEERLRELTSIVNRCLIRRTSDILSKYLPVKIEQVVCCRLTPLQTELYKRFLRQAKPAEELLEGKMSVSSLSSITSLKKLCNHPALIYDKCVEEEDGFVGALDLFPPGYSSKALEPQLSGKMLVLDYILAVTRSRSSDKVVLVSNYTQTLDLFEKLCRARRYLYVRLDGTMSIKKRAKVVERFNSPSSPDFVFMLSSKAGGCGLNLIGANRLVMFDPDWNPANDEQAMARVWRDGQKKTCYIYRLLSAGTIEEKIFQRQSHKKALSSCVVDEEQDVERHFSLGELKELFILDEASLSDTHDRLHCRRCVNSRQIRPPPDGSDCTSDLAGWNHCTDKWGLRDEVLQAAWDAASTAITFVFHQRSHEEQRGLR

[18] = target: Kallikrein-7 (Homo sapiens, UniProt P49862); assay: Fluorescence Intensity-based biochemical primary high throughput dose response assay to identify activators of kallikrein-7 (K7) zymogen.
Kallikrein-7, sequence (P49862 whole entry): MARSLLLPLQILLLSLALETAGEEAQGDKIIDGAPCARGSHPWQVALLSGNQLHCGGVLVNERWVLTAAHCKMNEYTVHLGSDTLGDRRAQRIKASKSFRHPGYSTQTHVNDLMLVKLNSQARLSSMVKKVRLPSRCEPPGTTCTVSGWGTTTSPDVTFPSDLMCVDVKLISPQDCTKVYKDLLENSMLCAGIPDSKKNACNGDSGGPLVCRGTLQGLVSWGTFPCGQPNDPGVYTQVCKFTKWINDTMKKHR

[19] = target: T5, Polyadenylate-binding protein 1 (Homo sapiens, UniProt P11940); assay: MLLE binding blockers, Cy5 peptide tracer – biochemical, fluorescence polarization, Cy5-PAM2 peptide, secondary, miRNA deadenylation inhibitor project, dose response (AID 602260); assay type: functional; conditions: read-out: IC50_Mean
T5 sequence (P11940 whole entry, the tested form may be a part): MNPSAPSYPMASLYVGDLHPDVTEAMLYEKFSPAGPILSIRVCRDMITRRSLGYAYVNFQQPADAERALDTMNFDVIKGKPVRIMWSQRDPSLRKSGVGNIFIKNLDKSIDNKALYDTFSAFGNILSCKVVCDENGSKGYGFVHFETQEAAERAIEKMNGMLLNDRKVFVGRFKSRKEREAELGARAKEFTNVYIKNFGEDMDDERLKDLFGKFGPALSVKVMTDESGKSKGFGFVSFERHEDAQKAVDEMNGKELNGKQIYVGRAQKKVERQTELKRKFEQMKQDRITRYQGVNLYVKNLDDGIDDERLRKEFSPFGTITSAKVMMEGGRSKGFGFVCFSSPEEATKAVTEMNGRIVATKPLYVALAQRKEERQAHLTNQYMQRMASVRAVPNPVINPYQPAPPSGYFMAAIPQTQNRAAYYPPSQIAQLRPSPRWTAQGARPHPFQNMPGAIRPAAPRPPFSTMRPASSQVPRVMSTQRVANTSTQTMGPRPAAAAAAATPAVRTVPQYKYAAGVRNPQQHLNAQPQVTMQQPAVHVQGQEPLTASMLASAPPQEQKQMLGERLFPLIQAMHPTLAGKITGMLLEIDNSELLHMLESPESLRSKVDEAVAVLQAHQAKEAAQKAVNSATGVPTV

[20] = target: T5, Polyadenylate-binding protein 1; assay: MLLE domain peptide-binding blockers, IC50 – biochemical, fluorescence polarization, FITC-PAM2 peptide, dose response (AID 602259); assay type: functional; conditions: read-out: IC50_Mean
[21] = target: T6, Hepatocyte nuclear factor 4-alpha (Homo sapiens, UniProt P41235); assay type: functional, cell-based;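 also: biochemical luminescence-based dose-response counterscreen measuring inhibition of HNF4 dimerization, run alongside a screen for blockers of ABHD5–perilipin-5 interaction; split luciferase complementation of HNF4 fusion proteins in cell lysate measuring dimerization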
T6 sequence (P41235 whole entry): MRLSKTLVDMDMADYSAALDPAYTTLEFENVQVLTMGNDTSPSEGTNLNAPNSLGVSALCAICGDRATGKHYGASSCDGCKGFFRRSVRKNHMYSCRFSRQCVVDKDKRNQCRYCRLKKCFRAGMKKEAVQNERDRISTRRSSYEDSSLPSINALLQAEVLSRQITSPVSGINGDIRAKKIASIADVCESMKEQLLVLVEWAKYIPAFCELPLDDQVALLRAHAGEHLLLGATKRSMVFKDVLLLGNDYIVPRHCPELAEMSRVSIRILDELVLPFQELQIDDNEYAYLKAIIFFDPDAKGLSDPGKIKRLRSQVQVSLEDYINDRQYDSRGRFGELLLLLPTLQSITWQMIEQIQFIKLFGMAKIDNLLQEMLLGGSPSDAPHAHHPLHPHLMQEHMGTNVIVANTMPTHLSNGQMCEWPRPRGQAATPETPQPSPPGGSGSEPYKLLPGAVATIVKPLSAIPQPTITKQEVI

[22] = viability loss in THP-1 monocytes – THP-1 cells, cytotoxicity control for Vif-APOBEC3G degradation inhibitor project, dose response (AID 1117359); assay type: functional; conditions: THP-1
[23] = reduced cellular PGC1a acetyl-lysine signal – cell-based, cherry-picked samples, dose response (AID 720514); assay type: functional;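 also: potency may reflect raised or lowered acetylation signal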
[24] = viability of PTEN-deleted HCT116 cells – cell-based, HCT116 PTEN knockout, dose response (AID 1047); assay type: functional;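 also: HCT116 colon tumor cells with PTEN knocked out; cells exposed to compound for 60 hours before readout; potency for loss of cell viability measured by luminescence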
[25] = viability of HCT116 lacking mutant beta-catenin – cell-based, human colon tumor, dose response (AID 1045); assay type: functional;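 also: HCT116 colon tumor cells with beta catenin knocked out; cells exposed to compound for 60 hours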
[26] = A549 cell cytotoxicity, dose response, cytotoxicity control, plate reader, cherry-pick, antagonist series (AID 743412); assay type: functional, cell-based
[27] = blockers of bursicon-stimulated LGR2 cAMP reporter – cell-based, HEK293, CRE-luciferase reporter, cherry pick, set 2, dose response (AID 743343); assay type: functional;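 also: transfected cells were stimulated with diluted bursicon conditioned medium after compound addition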
[28] = blockade of melanocortin 4 receptor signaling – cell-based, plate reader, cherry pick, counter-screen for LGR2 antagonist project, dose response (AID 743444); assay type: functional;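 also: transfected HEK 293 cells stimulated with alpha-MSH peptide; potency of inhibitors of the alpha-MSH evoked signal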
[29] = viability loss in HEK293 cells – cell-based, plate reader, cherry-picked samples, cytotoxicity control, dose response (AID 743446); assay type: functional
[30] = target: T7, Cytochrome P450 1A2 (Homo sapiens, UniProt P05177);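 also: PubChem cytochrome P450 panel assay, CYP1A2 panel member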
T7 sequence (P05177 whole entry): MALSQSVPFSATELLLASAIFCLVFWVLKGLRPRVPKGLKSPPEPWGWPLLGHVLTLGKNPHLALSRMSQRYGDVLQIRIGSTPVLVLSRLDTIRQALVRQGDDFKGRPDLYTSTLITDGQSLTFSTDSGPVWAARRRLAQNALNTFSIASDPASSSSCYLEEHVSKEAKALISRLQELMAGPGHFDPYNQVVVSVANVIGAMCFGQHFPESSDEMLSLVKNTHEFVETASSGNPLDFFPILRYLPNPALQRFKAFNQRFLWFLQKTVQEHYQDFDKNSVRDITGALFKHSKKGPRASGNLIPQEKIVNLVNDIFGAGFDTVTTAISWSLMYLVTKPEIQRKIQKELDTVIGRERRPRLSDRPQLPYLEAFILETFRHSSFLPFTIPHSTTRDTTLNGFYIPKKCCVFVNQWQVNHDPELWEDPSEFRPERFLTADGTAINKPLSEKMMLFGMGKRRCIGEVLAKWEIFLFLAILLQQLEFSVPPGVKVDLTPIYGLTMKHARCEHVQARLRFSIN

O=c1c2ccccc2n(Cc2ccc(F)cc2)c(=O)n1C1CCCC1
IC50 [1]: 3.48 µM (active) | EC50 [2]: > 53 µM (inactive) | IC50 [3]: > 20 µM (inactive)

CCOC(=O)C1CCCN(Cc2ccc(-c3ccccc3)cc2)C1 (stereo not given)
EC50 [4]: < 0.1 µM (active) | EC50 [5]: > 60 µM (not active) | EC50 [6]: 0.429 µM (active)

CC1(OC(=O)C2CCCC2)C(=O)C=C2C=C3CCCCN3C=C2C1=O (stereo not given)
IC50 [7]: 4.28 µM (active) | IC50 [8]: 3.82 µM (active)

O=c1cc(N2CCN(c3cccc(Cl)c3)CC2)[nH]c(=O)n1C1CCCCC1
AC50 [9]: 1.15 µM (active) | IC50 [10]: 0.0374 µM (active) | AC50 [11]: 3.55 µM (inconclusive) | AC50 [12]: 3.16 µM (inconclusive)

CCc1nnc(NS(=O)(=O)c2ccc(NC(=S)NC(=O)/C=C/c3ccccc3)cc2)s1
IC50 [1]: < 0.368 µM (active) | EC50 [2]: > 53 µM (inactive) | IC50 [3]: > 20 µM (inactive)

CC1(OC(=O)c2ccc(Cl)nc2)C(=O)C=C2C=C3CCCN3C=C2C1=O (stereo not given)
IC50 [7]: 8.11 µM (active) | IC50 [8]: 5.33 µM (active)

Cc1cc(S(=O)(=O)N(Cc2ccc(F)cc2)CC2CCCO2)ccc1-n1cnnn1 (stereo not given)
IC50 [13]: > 50 µM (not active)

O=C(CSc1nnc(-c2cccnc2)n1-c1ccccc1)Nc1ccc2c(c1)OCO2
IC50 [13]: > 50 µM (not active)

Cc1cc(Cl)cc2c1NC(=O)[C@]21[C@@H]2C(=O)N(Cc3ccccc3)C(=O)[C@@H]2[C@@H]2CCCN21
IC50 [14]: > 100 µM (active)

COc1cc(OC)c2nc(C)c3c(c2c1)N(c1ccc(O)cc1)CC3
EC50 [15]: > 350 µM (not active) | EC50 [4]: 2.49 µM (active) | EC50 [16]: > 350 µM (not active) | EC50 [5]: > 60 µM (not active) | AC50 [17]: 9.09 µM (active) | AC50 [11]: 10 µM (inconclusive)

Cc1ccc(C(=O)Nc2ccc3nccnc3c2)cc1
EC50 [18]: 9.72 µM (active) | AC50 [12]: 35.5 µM (inconclusive)

Cc1cc(N2CCCC2)nc2ccc(NC(=S)NCCCOC(C)C)cc12
EC50 [18]: > 69.5 µM (inactive)

Cc1cccc(C)c1NC(=O)C(c1ccccc1)N1CC(=O)Nc2ccccc21 (stereo not given)
EC50 [18]: > 69.5 µM (inactive)

Cc1ccc(S(=O)(=O)N(CC(=O)Nc2ccccc2C(=O)O)c2ccc(Cl)cc2)cc1
IC50 [1]: 10.3 µM (active) | EC50 [2]: > 53 µM (inactive) | IC50 [3]: 14.4 µM (active)

O=C(c1cc2n(n1)C(C(F)(F)F)CC(c1ccco1)N2)N1CCc2ccccc2C1 (stereo not given)
IC50 [14]: > 100 µM (active)

CC(C)CCN1CCN(Cc2cccn2-c2cccnc2)CC1CCO (stereo not given)
IC50 [14]: > 100 µM (active)

CCOC1=CC2=C(C(=O)C(Cl)=CC2=O)[C@@H]2CN(S(=O)(=O)c3ccc(C)cc3)[C@@H](c3ccccc3)[C@H]12
IC50 [19]: > 66 µM (inactive) | IC50 [20]: > 66 µM (inactive) | IC50 [21]: 0.814 µM (active)

COc1cc(C)c(C2NC(=O)c3ccccc3N2)cc1C (stereo not given)
CC50 [22]: 2.86 µM (active)

Cc1cccc(C)c1NC(=O)C(c1ccnc2ccccc12)n1c(=O)c(-c2ccco2)nc2ccccc21 (stereo not given)
IC50 [21]: 3.64 µM (active)

O=C1C=CCCN1C(=O)/C=C/c1ccccc1Cl
AC50 [23]: 0.617 µM (active)

Cc1ccc(C#N)c(SCc2nnc(-c3ccc(Cl)cc3)o2)n1
EC50 [24]: 8.1 µM (active) | EC50 [25]: 15.7 µM (active) | IC50 [10]: 1.47 µM (active) | AC50 [26]: 30.9 µM (active) | AC50 [27]: 0.181 µM (active) | AC50 [28]: 0.209 µM (active) | AC50 [29]: > 52 µM (inactive)

CCN(CC)CCOCCOC(=O)C1(c2ccccc2)CCCC1 [CARBETAPENTANE CITRATE]
IC50 [21]: 10.9 µM (inactive) | AC50 [30]: 12.6 µM (inconclusive)
